Assay results as given in US20200399308A1, “COMPOUNDS AND METHODS FOR ELICITING ANTIMICROBIAL ACTIVITY” (Technion Research & Development Foundation Limited, priority 2018, published 2020).
≈ marks a conversion by molar mass, not a printed value. Entries after “also recorded” stand apart in the source; their conditions may differ. Non-standard residues stand in square brackets, D forms with d. Residues, ends and D or L forms follow the SMILES beside them. *: point of attachment. 12Ado = NCCCCCCCCCCCC(=O)O; Decanoyl = CCCCCCCCCC(=O)*; Orn = NCCC[CH](N)C(=O)O

What was measured:
[1] = Hydrophobicity (H) by HPLC elution from C18 column; assay type: physicochemical; settings: percentage of acetonitrile required for elution
K. pneumoniae = assay: Minimal bactericidal concentration; assay type: cell-based; settings: Klebsiella pneumoniae
[2] = system: Escherichia coli mutant ML-35p; assay: Outer and cytoplasmic membrane permeabilization (nitrocefin / ONPG); assay type: cell-based; settings: E. coli ML-35p, buffer, 16 minutes after addition
Description: Membrane permeabilization was assessed using E. coli ML-35p as described elsewhere, to monitor the ability of the compounds to perturb the outer and/or cytoplasmic membranes. Reported data were obtained from ≥2 independent experiments performed in duplicate.
Additional support for this view was obtained by comparing the compounds' susceptibility to damage gram-negative bacteria membranes, using the E. coli mutant ML-35p. Widely described in the literature, the mutant was considered herein as representative of all gram-negative bacteria, rather than a specific species. This mutant is constitutive for cytoplasmic β-galactosidase, lacks lactose permease, and expresses a plasmid-encoded periplasmic β-lactamase. Two chromogenic reporter molecules (nitrocefin and 2-nitrophenyl β-d-galactopyranoside, respectively, absorbing at 486 and 420 nm) were used to monitor permeabilization of the outer membrane and/or cytoplasmic membrane in a single assay.

Escherichia coli 25922 [3] = assay: Serum survival assay; assay type: cell-based
Description: (§1) Serum survival assays were performed using fresh serum from normal mice or human serum from the Israel Blood Bank; samples were pooled and stored in aliquots at −80° C. until use. Time-dependent killing was determined in a final volume of 125 μL consisting of 112.5 μL of serum containing either a tested compound, egg white lysozyme (Amresco), lactoferrin (Vivinal lactoferrin FD; DMV International, Delhi, N.Y.), anti-murine C5/C5a antibody (25 μg/mL; ab194637; Abcam), or their combination, as specified. These solutions were supplemented with 12.5 μL of bacteria suspended in PBS at the desired concentration. After the specified time points of exposure, cultures were subjected to serial 10-fold dilutions in saline (0.85% NaCl) and plated for bacterial enumeration after incubation at 37° C. for an additional 24 hours. In heat-treated experiments, sera were incubated at 56° C. for 30 minutes for protein inactivation. Data were obtained from 3 independent experiments.

[4] = system: Klebsiella pneumoniae 1287; assay: Serum survival assay; assay type: cell-based; settings: 10 μM Compound B
Description: as §1

Escherichia coli 25922 [5] = assay: Checkerboard assay with lysozyme in broth medium; assay type: cell-based
Description: (§2) Inhibition was determined after 24 hours of incubation.

[6] = system: Klebsiella pneumoniae 1287; assay: Checkerboard assay with lysozyme in broth medium; assay type: cell-based; settings: growth medium, 2.5, 5, 10 μM Compound B combined with lysozyme, 24 hours
Description: as §2

E. coli 25922 [7] = assay: Outer-membrane damage assay (NPN uptake); assay type: cell-based, Escherichia coli; settings: sub-MIC concentrations
Description: 1-N-phenylnaphthylamine (NPN) uptake (manifested as fluorescence) reflects outer-membrane damage because normally bacteria are able to exclude hydrophobic substances. As described elsewhere, E. coli 25922 was grown to the mid-logarithmic phase of growth (OD=0.4-0.6 at 600 nm), centrifuged, and resuspended in 5 mM HEPES buffer containing 5 mM glucose to OD 0.5. Next, […] of NPN solution (0.2 mM) was added to every milliliter bacteria suspension. Using black 96-well plates, […] of bacteria suspension was mixed with […] of test compound at the desired concentration and the fluorescence immediately monitored (excitation 360 nm, emission 460 nm) for up to 10 min. Data were obtained from at least 2 independent experiments performed in triplicate.
(§3) (FU denotes fluorescence units; triangles denote Compound B, circles denote PMB, squares denote untreated control; error bars=SD).

E. coli 25922 [8] = assay: Cytoplasmic membrane depolarization (DiSC35); assay type: cell-based, Escherichia coli; settings: low Compound B concentrations
Description: Cytoplasmic membrane depolarization measurements were assessed by monitoring the displacement of 3,39-dipropylthiadicarbocyanine iodide (DiSC35), a lipophilic potentiometric dye. Mid-logarithmic phase E. coli 25922 at OD 0.6 nm was centrifuged for 5 min at 15,000 g. The pellet was washed twice with 5 mM HEPES containing 5 mM glucose and 2 mM EDTA before addition of DiSC35 ([…]) and quenching at room temperature in the dark for 1 hour. KCl was then added (100 mM) and the suspension incubated overnight (4° C.). One hundred eighty microliters of this bacterial suspension was placed in a black 96-well plate, and fluorescence was recorded until signal stabilization (excitation 620 nm, emission 680 nm). Thereafter […] of the tested compound was added and the fluorescence recorded for up to 30 minutes at 37° C. with shaking. Data were obtained from at least 2 independent experiments performed in duplicate.
as §3

[9] = system: resistance—nodulation—division deletion mutant; assay: MIC on efflux mutant; assay type: cell-based; settings: Escherichia coli
Excerpt: The following strains were used for the studies below: Escherichia coli strain ML-35p (American Type Culture Collection [ATCC]; […]. The following gram-positive species was investigated: methicillin-resistant Staphylococcus aureus clinical isolate USA300 10017 (a gift from Dr. Gili Regev-Yochay, Infectious Disease Unit, Sheba Medical Center, Israel). Additional Escherichia coli strains tested include β-lactamase producer 35218; clinical isolate strains 14182, 14384, and U16327; and two K12 isogenic mutants, AG100 and AG100A. Unless otherwise stated, all bacterial cultures were grown overnight in Luria-Bertani broth (LB).
Minimal inhibitory concentrations (MICs) were determined as previously described. […] MICs were determined by microdilution susceptibility testing in 96-well plates (by Nunc) using inocula of 10^5 bacteria per ml. Cell populations were evaluated by optical density measurements at 620 nm and were calibrated against a set of standards. Hundred (100) μl of a bacterial suspension were added to 100 μl of culture medium (control) or to 100 μl of culture medium containing various tested compound concentrations in 2-fold serial dilutions. Inhibition of proliferation was determined by optical density measurements at 620 nm after an incubation period of 24 hours at 37° C. Data were obtained from ≥2 independent experiments performed in duplicate.

CCCCCCCCCC(=O)NC(CCCN)C(=O)NC(CCCN)C(=O)NCCCCCCCCCCCC(=O)NC(CCCN)C(N)=O (stereo not drawn) [Compound B] (Decanoyl-[Orn][Orn][12Ado][Orn]-NH2; configuration not given here)
H, hydrophobicity [1]: 43% | MBC (K. pneumoniae): > 50 µM | cytoplasmic membrane permeabilization [2]: similarly unable to permeabilize the cytoplasmic membrane at least up to approximately 10 μM; also recorded: some CM permeabilization occurred only at 10 mM | outer membrane permeabilization [2]: similarly potent in inducing outer membrane permeabilization; also recorded: as efficient as dermaseptin in altering outer membrane permeability | inhibition at 10 µM (Escherichia coli 25922 [3]; Escherichia coli, 25922, 80% mouse serum, 10 μM Compound B, 3 h, read-out: growth inhibition in mouse serum): 74% | antibacterial effect in human serum (Escherichia coli 25922 [3]; 10 μM Compound B, absence of exogenous lysozyme): significant growth inhibition | antibacterial effect in human serum (Escherichia coli 25922 [3]; 10 μM Compound B, presence of exogenous lysozyme (18 μM)): potent bactericidal effect | growth inhibition in serum obtained from treated mice (Escherichia coli 25922 [3]; mouse serum obtained 1 hour after subcutaneous administration ([…]), 3 h incubation): 80% | E. coli counts (final, from 4 log) (Escherichia coli 25922 [3]; mouse serum, 10 μM Compound B plus 18 μM lysozyme): 1.7 log CFU/mL | inhibition at 10 µM ([4]; Klebsiella pneumoniae, 1287, 80% mouse serum, 3 h, read-out: growth inhibition in mouse serum): 48% | antibacterial effect in human serum ([4]; absence of exogenous lysozyme): significant growth inhibition | antibacterial effect in human serum ([4]; presence of exogenous lysozyme (18 μM)): potent bactericidal effect | growth inhibition in combination with lysozyme (Escherichia coli 25922 [5]; growth medium, 2.5, 5, 10 μM Compound B combined with lysozyme, 24 hours): dose-dependent synergistic growth inhibition | E. coli counts (final, from 4 log) (Escherichia coli 25922 [5]; medium, 10 μM Compound B plus 18 μM lysozyme): 9 log CFU/mL | growth inhibition in combination with lysozyme [6]: dose-dependent synergistic growth inhibition | OM permeabilization (NPN fluorescence) (E. coli 25922 [7]): rapidly caused a dose-dependent increase in fluorescence | CM depolarization (DiSC35 fluorescence) (E. coli 25922 [8]): partial depolarization of the CM | MIC [9]: 6.3 µM (≈ 4.48 µg/mL)
